Reference: patent US20210300962A1, “LIPID PRODRUGS OF PREGNANE NEU[…] USES THEREOF” (PureTech LYT, Inc., priority 2018, published 2021)

Legend:
[1] = Rat pharmacokinetic studies: plasma allopregnanolone after oral prodrug or ALLO, and after IV ALLO; type: in vivo, male Sprague-Dawley rats; conditions: plasma Allo after oral gavage to rats; doses normalized to 2 mg/kg equivalent ALLO; mean±SD (n≥3) or mean±range (n=2)
Protocol: In order to assess the oral bioavailability of test compounds, pharmacokinetic studies were conducted using the following procedure. The day before drug administration, male Sprague-Dawley rats (240-320 g) were anesthetized and the carotid artery was cannulated. The rats were then allowed to regain consciousness and fasted overnight prior to the commencement of experiments with free access to water. The next morning, formulations containing parent compounds or prodrugs were administered via oral gavage or via the jugular vein cannula, and blood samples were collected from the carotid artery cannula from −5 min up to 24 h post dosing. During the blood sample collection period the rats had free access to water but remained fasted for a further 8 h following drug administration. In these allopregnanolone (ALLO) related studies, the blood samples were centrifuged at 4500×g for 5 min to separate plasma. Plasma samples were stored at −20° C. prior to assay by HPLC-MS-MS. The whole blood or plasma samples were assayed for free drug (i.e. non-glyceride associated drug) and were not hydrolized prior to assay (as was the case with the lymph samples).
FIG. 3 illustrates dose-normalized ALLO plasma concentrations following oral gavage of ALLO related formulations to conscious, carotid artery-cannulated male SD rats. The ALLO oral formulation for each rat contained 2 mg of parent ALLO (i.e., non-prodrug allopregnanolone) suspended in 2 ml of suspending vehicle (0.50 sodium carboxymethyl cellulose, 0.4% Tween 80 and 0.9% NaCl in water). Prodrug formulations for each rat contained 2 mg of the ALLO prodrug dispersed in 40 mg oleic acid, 25 mg Tween 80 and 2 ml PBS. Doses were normalized to a 2 mg/kg equivalent dose of ALLO. Data are shown as mean±SD n≥3 or mean±range when n=2. […] Doses are normalized to a 2 mg/kg equivalent ALLO dose and data are presented as mean±SD when n≥3 or mean±range when n=2.
Also shown (bottom) is the calculated area under the curve (AUC) over 0-24 h for each of the test compounds as a fraction of the IV-administered allpregnanolone control.

[2] = tested on: porcine pancreatic lipase; experiment: In vitro hydrolysis of prodrugs by incubation with porcine pancreatic lipase; type: in vitro ADME; conditions: 37° C.; for hydrolysis of prodrug to its monoglyceride form: simulated intestinal micellar solution, 0-180 min
Protocol: To provide for higher throughput of experiments, unless otherwise stated, in vitro hydrolysis of compounds will generally be performed via incubation with porcine pancreatic lipase. This provides a more reproducible source of pancreatic enzymes, facilitates enhanced experimental throughput, and is also a greater challenge than collected rat enzymes (since enzyme activity in rat intestinal fluid is low). Briefly, pancreatic lipase solution was prepared prior to the hydrolysis experiment by dispersion of 1 g porcine pancreatin in 5 ml of lipolysis buffer and 16.9 μL of 0.5 M NaOH. The suspension was mixed well and centrifuged at 3500 rpm for 15 minutes at 5° C. to provide a supernatant. An amount of 1000 mL of lipolysis buffer was prepared with 0.474 g of tris-maleate (2 mM), 0.206 g of CaCl2.H2O (1.4 mM) and 8.775 g of NaCl (150 mM) adjusted with NaOH to pH 6.5. To assess the potential for prodrug hydrolysis in the intestine, 20 μL of prodrug solution (1 mg/mL dissolved in acetonitrile), 900 μL of simulated intestinal micellar solution [prepared with 0.783 g of NaTDC (3 mM) and 0.291 g of phosphatidylcholine (0.75 mM) in 500 mL lipolysis buffer] and 100 μL of enzyme solution were incubated at 37° C. 20 μL samples of the incubation solution were taken at 0, 5, 10, 15, 30, 60, 90, 120 and 180 minutes post incubation and added to 180 μL of MeCN to stop lipolysis. The mixture was vortexed and centrifuged at 5000 rpm for 5 minutes to precipitate proteins prior to analysis. The supernatant was analyzed by HPLC-MS for residual compound concentrations, and the potential products of compound hydrolysis analyzed.
The data for prodrug compounds I-1 and I-2 are shown in FIG. 8 and FIG. 9, respectively. […] The monoglycerides were then converted at different rates to an acid intermediate and/or free parent ALLO. An acid intermediate was not observed for prodrug I-2. The acid intermediate of prodrug I-1 is believed to have the following structure, based on HPLC-MS data: […]

[3] = tested on: rat plasma supplemented with lipoprotein lipase (LPL); experiment: In vitro hydrolysis of prodrugs in rat plasma supplemented with lipoprotein lipase; type: in vitro ADME; conditions: 37° C.; for hydrolysis of prodrug to its monoglyceride form: 0-180 min
Protocol: (§1) In order to probe the release of free drug from TG prodrugs in the systemic circulation, prodrugs are incubated with plasma (rat, mouse, dog, pig or human) supplemented with lipoprotein lipase (LPL, 200 IU/ml). LPL is a key enzyme required for the hydrolysis of lipoprotein associated TG in the systemic circulation and is therefore expected to be a key contributor to lipolysis of the re-esterified drug-TG construct in plasma, largely via liberation of fatty acids in the sn-1 and the sn-3 position of the TG-mimetic, prior to drug release from the 2′ position via esterase hydrolysis. […] is tethered to the luminal surface of vascular endothelial cells under physiological conditions. In the current in vitro studies, plasma is therefore supplemented with LPL to better reflect the in vivo situation.
(§2) To start hydrolysis, 10 μl of LPL solution (10,000 IU/ml) was added to a mixture of 10 μl of prodrug solution (1 mg/ml dissolved in acetonitrile) and 500 μl of blank plasma. The mixture was incubated at 37° C. Samples (20 μl) of the incubation solution were taken at 0, 5, 15, 30, 60, 90, 120 and 180 minutes post-incubation and added to 180 μl of MeCN to stop lipolysis. The mixture was vortexed and centrifuged at 4500×g for 5 minutes to precipitate proteins prior to analysis. The supernatant was analyzed by HPLC-MS/MS for the potential products (MG form, acid form, and free drug) of prodrug hydrolysis.
(§3) The in vitro hydrolysis profile of selected prodrug compounds was determined in rat, dog, and/or human plasma supplemented with LPL. The data for prodrug compound I-1 in rat and dog plasma are shown in FIG. 10 and FIG. 11, respectively. The data for prodrug compound I-2 in rat, dog, and human plasma are shown in FIG. 12, FIG. 13, and FIG. 14, respectively. […] The monoglycerides were then converted at different rates to an acid intermediate and/or free parent ALLO. An acid intermediate was not observed for prodrug I-2. The acid intermediate of prodrug I-1 is believed to have the following structure, based on HPLC-MS data: […]

[4] = tested on: dog plasma supplemented with lipoprotein lipase (LPL); experiment: In vitro hydrolysis of prodrugs in dog plasma supplemented with lipoprotein lipase; type: in vitro ADME; conditions: 37° C.; for hydrolysis of prodrug to its monoglyceride form: 0-180 min
Protocol: as §1, §2, §3

[5] = tested on: human plasma supplemented with lipoprotein lipase (LPL); experiment: In vitro hydrolysis of prodrugs in human plasma supplemented with lipoprotein lipase; type: in vitro ADME; conditions: 37° C.
Protocol: as §1
To start hydrolysis, 10 μl of LPL solution (10,000 IU/ml) was added to a mixture of 10 μl of prodrug solution (1 mg/ml dissolved in acetonitrile) and 500 μl of blank plasma. The mixture was incubated at 37° C. […] The supernatant was analyzed by HPLC-MS/MS for the potential products (MG form, acid form, and free drug) of prodrug hydrolysis.
The in vitro hydrolysis profile of selected prodrug compounds was determined in rat, dog, and/or human plasma supplemented with LPL. […]

[6] = background statement; cited from earlier work

Row | SMILES | Cmax [1] | hydrolysis of prodrug to its monoglyceride form [2] | hydrolysis of prodrug to its monoglyceride form [3] | hydrolysis of prodrug to its monoglyceride form [4] | further results
1 | CCCCCCCCCCCCCCCC(=O)OCC(COC(=O)CCCCCCCCCCCCCCC)OC(=O)C(C)(C)CCCCCCCCCC(=O)O[C@@H]1CC[C@@]2(C)[C@@H](CC[C@@H]3[C@@H]2CC[C@]2(C)[C@@H](C(C)=O)CC[C@@H]32)C1 [Compound I-13, 12-((3R,5S,8R,9S,10S,13S,14S,17S)-17-acetyl-10,13-dimethylhexadecahydro-1H-cyclopenta[a]phenanthren-3-yl) 1-(1,3-bis(palmitoyloxy)propan-2-yl) 2,2-dimethyldodecanedioate] | below LOQ) |  |  |  | 
2 | CCCCCCCCCCCCCCCC(=O)OCC(COC(=O)CCCCCCCCCCCCCCC)OC(=O)CC(C)CC(=O)OC(C)OC(=O)O[C@@H]1CC[C@@]2(C)[C@@H](CC[C@@H]3[C@@H]2CC[C@]2(C)[C@@H](C(C)=O)CC[C@@H]32)C1 (stereo partly drawn) [Compound I-2, 1-(1-(((((3R,5S,8R,9S,10S,13S,14S,17S)-17-acetyl-10,13-dimethylhexadecahydro-1H-cyclopenta[a]phenanthren-3-yl)oxy)carbonyl)oxy)ethyl) 5-(1,3-bis(palmitoyloxy)propan-2-yl) 3-methylpentanedioate] |  | rapidly converted to the prodrug's monoglyceride form | rapidly converted to the prodrug's monoglyceride form | rapidly converted to the prodrug's monoglyceride form | acid intermediate of hydrolysis ([2]; HPLC-MS): not observed; acid intermediate of hydrolysis [3]: not observed; acid intermediate of hydrolysis [4]: not observed; acid intermediate of hydrolysis [5]: not observed; hydrolysis of prodrug to its monoglyceride form ([5]; 0-180 min): rapidly converted to the prodrug's monoglyceride form
3 | CCCCCCCCCCCCCCCC(=O)OCC(COC(=O)CCCCCCCCCCCCCCC)OC(=O)C(C)(C)CCCCCCCC(=O)O[C@@H]1CC[C@@]2(C)[C@@H](CC[C@@H]3[C@@H]2CC[C@]2(C)[C@@H](C(C)=O)CC[C@@H]32)C1 [Compound I-12, 10-((3R,5S,8R,9S,10S,13S,14S,17S)-17-acetyl-10,13-dimethylhexadecahydro-1H-cyclopenta[a]phenanthren-3-yl) 1-(1,3-bis(palmitoyloxy)propan-2-yl) 2,2-dimethyldecanedioate] | below LOQ) |  |  |  | 
4 | CCCCCCCCCCCCCCCC(=O)OCC(COC(=O)CCCCCCCCCCCCCCC)OC(=O)CCCCCCCCC(=O)O[C@@H]1CC[C@@]2(C)[C@@H](CC[C@@H]3[C@@H]2CC[C@]2(C)[C@@H](C(C)=O)CC[C@@H]32)C1 [Compound I-1, 1-((3R,5S,8R,9S,10S,13S,14S,17S)-17-acetyl-10,13-dimethylhexadecahydro-1H-cyclopenta[a]phenanthren-3-yl) 10-(1,3-bis(palmitoyloxy)propan-2-yl) decanedioate] |  | rapidly converted to the prodrug's monoglyceride form | rapidly converted to the prodrug's monoglyceride form | rapidly converted to the prodrug's monoglyceride form | 
5 | CCCCCCCCCCC(=O)O[C@H]1CC[C@H]2[C@@H]3CCC4=CC(=O)CC[C@]4(C)[C@H]3CC[C@]12C [testosterone undecanoate] |  |  |  |  | bioavailability of testosterone after oral administration of the undecanoate ester [6]: < 5%
